Reference: patent US10004701B2, “Methods and compositions for treating infection” (UNIVERSITY OF ROCHESTER, priority 2012, dated 2018)
Where a name gives a salt, the structure may show the parent alone. Read-outs that look alike come from different tables or passages of the source.

Assays:
Assay in all cases: AK assay 384-well format, Prestwick library screening
E. faecium = type: cell-based, Enterococcus faecium; details: 50 μM final drug concentration; for fold induction at 50 µM: Enterococcus faecium, 3 h
K. pneumoniae = type: cell-based, Klebsiella pneumoniae; details: 50 μM final drug concentration; for fold induction at 50 µM: Klebsiella pneumoniae, 3 h
[1] = tested on: S. aureus strain USA300-0114; type: cell-based, Staphylococcus aureus; details: 50 μM final drug concentration; for fold induction at 50 µM: Staphylococcus aureus, USA300, 3 h
E. coli = type: cell-based, Escherichia coli; details: 50 μM final drug concentration; for fold induction at 50 µM: Escherichia coli, 3 h
P. aeruginosa = type: cell-based, Pseudomonas aeruginosa; details: 50 μM final drug concentration; for fold induction at 50 µM: Pseudomonas aeruginosa, 3 h
E. cloacae = type: cell-based, Enterobacter cloacae; details: 50 μM final drug concentration; for fold induction at 50 µM: Enterobacter cloacae, 3 h
[2] = tested on: A. baumannii strain 98-37-09; type: cell-based, Acinetobacter baumannii; details: 50 μM final drug concentration; for fold induction at 50 µM: Acinetobacter baumannii, 983709, 3 h
[3] = cutoff for positive-scoring molecules 3-fold increase, read-out: AK-based Prestwick Library Screening Results, E. faecium (fold increase in extracellular AK activity)
[4] = cutoff for positive-scoring molecules 3-fold increase, read-out: AK-based Prestwick Library Screening Results, K. pneumoniae (fold increase in extracellular AK activity)
[5] = cutoff for positive-scoring molecules 3-fold increase, read-out: AK-based Prestwick Library Screening Results, S. aureus (fold increase in extracellular AK activity)
[6] = cutoff for positive-scoring molecules 3-fold increase, read-out: AK-based Prestwick Library Screening Results, E. coli (fold increase in extracellular AK activity)
[7] = cutoff for positive-scoring molecules 3-fold increase, read-out: AK-based Prestwick Library Screening Results, P. aeruginosa (fold increase in extracellular AK activity)
[8] = cutoff for positive-scoring molecules 3-fold increase, read-out: AK-based Prestwick Library Screening Results, E. cloacae (fold increase in extracellular AK activity)
[9] = cutoff for positive-scoring molecules 3-fold increase, read-out: AK-based Prestwick Library Screening Results, A. baumannii (fold increase in extracellular AK activity)
[10] = planktonic, cutoff for positive 3-fold increase
[11] = planktonic E. faecium, positive cutoff 3-fold increase, read-out: AK-based Prestwick library screening result, E. faecium (fold increase in extracellular AK activity)
[12] = planktonic K. pneumoniae, positive cutoff 3-fold increase, read-out: AK-based Prestwick library screening result, K. pneumoniae (fold increase in extracellular AK activity)
[13] = planktonic S. aureus, positive cutoff 3-fold increase, read-out: AK-based Prestwick library screening result, S. aureus (fold increase in extracellular AK activity)
[14] = planktonic E. coli, positive cutoff 3-fold increase, read-out: AK-based Prestwick library screening result, E. coli (fold increase in extracellular AK activity)
[15] = planktonic P. aeruginosa, positive cutoff 3-fold increase, read-out: AK-based Prestwick library screening result, P. aeruginosa (fold increase in extracellular AK activity)
[16] = planktonic E. cloacae, positive cutoff 3-fold increase, read-out: AK-based Prestwick library screening result, E. cloacae (fold increase in extracellular AK activity)
[17] = planktonic A. baumannii, positive cutoff 3-fold increase, read-out: AK-based Prestwick library screening result, A. baumannii (fold increase in extracellular AK activity)

Compound: C=C(C)[C@@H]1[C@H]2OC(=O)[C@@H]1[C@]1(O)C[C@H]3O[C@]34C(=O)O[C@H]2[C@]14C [Picrotoxinin]
- fold induction at 50 µM (E. faecium; planktonic, […], read-out: AK-based Prestwick Library Screening Results, E. faecium (fold increase in extracellular AK activity)): 1
- fold induction at 50 µM (K. pneumoniae; planktonic, […], read-out: AK-based Prestwick Library Screening Results, K. pneumoniae (fold increase in extracellular AK activity)): 0.6
- fold induction at 50 µM ([1]; planktonic, […], read-out: AK-based Prestwick Library Screening Results, S. aureus (fold increase in extracellular AK activity)): 0.6
- fold induction at 50 µM (E. coli; planktonic, […], read-out: AK-based Prestwick Library Screening Results, E. coli (fold increase in extracellular AK activity)): 0.6
- fold induction at 50 µM (P. aeruginosa; planktonic, […], read-out: AK-based Prestwick Library Screening Results, P. aeruginosa (fold increase in extracellular AK activity)): 0.6
- fold induction at 50 µM (E. cloacae; planktonic, […], read-out: AK-based Prestwick Library Screening Results, E. cloacae (fold increase in extracellular AK activity)): 0.7
- fold induction at 50 µM ([2]; planktonic, […], read-out: AK-based Prestwick Library Screening Results, A. baumannii (fold increase in extracellular AK activity)): 0.7

Compound: Cc1cc2nc3c(=O)[nH]c(=O)nc-3n(C[C@H](O)[C@H](O)[C@H](O)CO)c2cc1C [Riboflavine]
- fold induction at 50 µM (E. faecium; planktonic, cutoff for positive 3-fold increase, read-out: AK-based Prestwick Library Screening Results, E. faecium (fold increase in extracellular AK activity)): 1
- fold induction at 50 µM (K. pneumoniae; planktonic, cutoff for positive 3-fold increase, read-out: AK-based Prestwick Library Screening Results, K. pneumoniae (fold increase in extracellular AK activity)): 1.6
- fold induction at 50 µM ([1]; planktonic, cutoff for positive 3-fold increase, read-out: AK-based Prestwick Library Screening Results, S. aureus (fold increase in extracellular AK activity)): 0.9
- fold induction at 50 µM (E. coli; planktonic, cutoff for positive 3-fold increase, read-out: AK-based Prestwick Library Screening Results, E. coli (fold increase in extracellular AK activity)): 1.1
- fold induction at 50 µM (P. aeruginosa; planktonic, cutoff for positive 3-fold increase, read-out: AK-based Prestwick Library Screening Results, P. aeruginosa (fold increase in extracellular AK activity)): 1.2
- fold induction at 50 µM (E. cloacae; planktonic, cutoff for positive 3-fold increase, read-out: AK-based Prestwick Library Screening Results, E. cloacae (fold increase in extracellular AK activity)): 1.5
- fold induction at 50 µM ([2]; planktonic, cutoff for positive 3-fold increase, read-out: AK-based Prestwick Library Screening Results, A. baumannii (fold increase in extracellular AK activity)): 1.2

Compound: C=CCOC(Cn1ccnc1)c1ccc(Cl)cc1Cl (centres unmarked) [Enilconazole]
- fold induction at 50 µM (E. faecium; [3]): 1.1
- fold induction at 50 µM (K. pneumoniae; [4]): 0.5
- fold induction at 50 µM [1, 5]: 0.4
- fold induction at 50 µM (E. coli; [6]): 0.5
- fold induction at 50 µM (P. aeruginosa; [7]): 0.4
- fold induction at 50 µM (E. cloacae; [8]): 0.4
- fold induction at 50 µM [2, 9]: 0.4

Compound: COc1ccccc1N1CCN(CC(O)COc2cccc3ccccc23)CC1 (centres unmarked) [Naftopidil dihydrochloride]
- fold induction at 50 µM (E. faecium; [3]): 0.8
- fold induction at 50 µM (K. pneumoniae; [4]): 0.6
- fold induction at 50 µM [1, 5]: 0.5
- fold induction at 50 µM (E. coli; [6]): 0.9
- fold induction at 50 µM (P. aeruginosa; [7]): 0.7
- fold induction at 50 µM (E. cloacae; [8]): 0.9
- fold induction at 50 µM [2, 9]: 0.7

Compound: C[C@@H]1C(=O)O[C@H]2C[C@@]34[C@H]5C[C@@H](C(C)(C)C)[C@]36[C@@H](OC(=O)[C@@H]6O)O[C@@]4(C(=O)O5)[C@]21O [Ginkgolide A]
- AK-based Prestwick Library Screening Results, E. faecium (increase in extracellular AK activity) (E. faecium; planktonic E. faecium, […]): 1.0
- AK-based Prestwick Library Screening Results, K. pneumoniae (increase in extracellular AK activity) (K. pneumoniae; planktonic K. pneumoniae, […]): 1.0
- AK-based Prestwick Library Screening Results, S. aureus (increase in extracellular AK activity) ([1]; planktonic S. aureus, […]): 1.1
- AK-based Prestwick Library Screening Results, E. coli (increase in extracellular AK activity) (E. coli; planktonic E. coli, […]): 1.3
- AK-based Prestwick Library Screening Results, P. aeruginosa (increase in extracellular AK activity) (P. aeruginosa; planktonic P. aeruginosa, […]): 1.1
- AK-based Prestwick Library Screening Results, E. cloacae (increase in extracellular AK activity) (E. cloacae; planktonic E. cloacae, […]): 1.2
- AK-based Prestwick Library Screening Results, A. baumannii (increase in extracellular AK activity) ([2]; planktonic A. baumannii, […]): 1.0

Compound: Cc1ccsc1/C=C/C1=NCCCN1C [Morantel tartrate]
- fold induction at 50 µM (E. faecium; planktonic E. faecium, 384-well, […], read-out: AK-based Prestwick Library Screening Results: E. faecium (increase in extracellular AK activity)): 0.8
- fold induction at 50 µM (K. pneumoniae; planktonic K. pneumoniae, 384-well, […], read-out: AK-based Prestwick Library Screening Results: K. pneumoniae (increase in extracellular AK activity)): 0.9
- fold induction at 50 µM ([1]; planktonic S. aureus, 384-well, […], read-out: AK-based Prestwick Library Screening Results: S. aureus (increase in extracellular AK activity)): 1.2
- fold induction at 50 µM (E. coli; planktonic E. coli, 384-well, […], read-out: AK-based Prestwick Library Screening Results: E. coli (increase in extracellular AK activity)): 1.4
- fold induction at 50 µM (P. aeruginosa; planktonic P. aeruginosa, 384-well, […], read-out: AK-based Prestwick Library Screening Results: P. aeruginosa (increase in extracellular AK activity)): 1.2
- fold induction at 50 µM (E. cloacae; planktonic E. cloacae, 384-well, […], read-out: AK-based Prestwick Library Screening Results: E. cloacae (increase in extracellular AK activity)): 1.3
- fold induction at 50 µM ([2]; planktonic A. baumannii, 384-well, […], read-out: AK-based Prestwick Library Screening Results: A. baumannii (increase in extracellular AK activity)): 1.1

Compound: CN1[C@@H]2CCC[C@H]1CC(=O)C2.Cl [Pseudopelletierine hydrochloride]
- AK-based Prestwick Library Screening Results, E. faecium (fold increase in extracellular AK activity) (E. faecium; [10]): 0.9
- AK-based Prestwick Library Screening Results, K. pneumoniae (fold increase in extracellular AK activity) (K. pneumoniae; [10]): 1.2
- AK-based Prestwick Library Screening Results, S. aureus (fold increase in extracellular AK activity) [1, 10]: 1.0
- AK-based Prestwick Library Screening Results, E. coli (fold increase in extracellular AK activity) (E. coli; planktonic, […]): 1.4
- AK-based Prestwick Library Screening Results, P. aeruginosa (fold increase in extracellular AK activity) (P. aeruginosa; [10]): 1.1
- AK-based Prestwick Library Screening Results, E. cloacae (fold increase in extracellular AK activity) (E. cloacae; [10]): 1.5
- AK-based Prestwick Library Screening Results, A. baumannii (fold increase in extracellular AK activity) [2, 10]: 1.2

Compound: NS(=O)(=O)c1cc2c(cc1Cl)NC(CC1CCCC1)NS2(=O)=O (centres unmarked) [Cyclopenthiazide]
- fold induction at 50 µM (E. faecium; [11]): 0.9
- fold induction at 50 µM (K. pneumoniae; [12]): 0.8
- fold induction at 50 µM [1, 13]: 0.7
- fold induction at 50 µM (E. coli; [14]): 0.8
- fold induction at 50 µM (P. aeruginosa; [15]): 0.8
- fold induction at 50 µM (E. cloacae; [16]): 1.2
- fold induction at 50 µM [2, 17]: 0.8

Compound: N[C@@H](Cc1cc(I)c(Oc2cc(I)c(O)c(I)c2)c(I)c1)C(=O)O [Thyroxine (L)]
- AK-based Prestwick Library Screening Results: E. faecium (increase in extracellular AK activity) (E. faecium; planktonic E. faecium, 384-well, […]): 1.0
- AK-based Prestwick Library Screening Results: K. pneumoniae (increase in extracellular AK activity) (K. pneumoniae; planktonic K. pneumoniae, 384-well, […]): 0.4
- AK-based Prestwick Library Screening Results: S. aureus (increase in extracellular AK activity) ([1]; planktonic S. aureus, 384-well, […]): 0.2
- AK-based Prestwick Library Screening Results: E. coli (increase in extracellular AK activity) (E. coli; planktonic E. coli, 384-well, […]): 0.5
- AK-based Prestwick Library Screening Results: P. aeruginosa (increase in extracellular AK activity) (P. aeruginosa; planktonic P. aeruginosa, 384-well, […]): 0.4
- AK-based Prestwick Library Screening Results: E. cloacae (increase in extracellular AK activity) (E. cloacae; planktonic E. cloacae, 384-well, […]): 0.3
- AK-based Prestwick Library Screening Results: A. baumannii (increase in extracellular AK activity) ([2]; planktonic A. baumannii, 384-well, […]): 0.4

Compound: CCN1C(=O)NC(c2ccccc2)C1=O (centres unmarked) [Ethotoin]
- fold induction at 50 µM (E. faecium; [3]): 1
- fold induction at 50 µM (K. pneumoniae; [4]): 1
- fold induction at 50 µM [1, 5]: 1.2
- fold induction at 50 µM (E. coli; [6]): 1.2
- fold induction at 50 µM (P. aeruginosa; [7]): 0.9
- fold induction at 50 µM (E. cloacae; [8]): 1.6
- fold induction at 50 µM [2, 9]: 1.1

Compound: CCCOc1cc(N)ccc1C(=O)OCCN(CC)CC [Propoxycaine hydrochloride]
- fold induction at 50 µM (E. faecium; [11]): 1
- fold induction at 50 µM (K. pneumoniae; [12]): 0.6
- fold induction at 50 µM [1, 13]: 0.7
- fold induction at 50 µM (E. coli; [14]): 0.6
- fold induction at 50 µM (P. aeruginosa; [15]): 0.7
- fold induction at 50 µM (E. cloacae; [16]): 0.8
- fold induction at 50 µM [2, 17]: 0.8
